The source of these data is ChEMBL document CHEMBL4480363, “Recent developments in compounds acting in the DNA minor groove” (Medchemcomm, 2019).

In assay [1] the test system is Nakaseomyces glabratus. The experiment in a line: Antifungal activity against Candida glabrata ATCC 2001 incubated for 24 hrs by CLSI based broth microdilution method. The assay is classed as functional. To be noted: ATCC 2001, 24 h.
Assay [2] deals with Candida albicans. Description: Antifungal activity against Candida albicans SC5314 incubated for 24 hrs by CLSI based broth microdilution method. It counts as functional. The settings on record: SC5314, 24 h. For orientation: Dilution methods test growth across graded concentrations, often in twofold steps.
Assay [3] relates to Candida parapsilosis. The experiment in a line: Antifungal activity against Candida parapsilosis ATCC 22019 incubated for 24 hrs by CLSI based broth microdilution method. It counts as functional. To be noted: Lodderomyces parapsilosis, ATCC 22019, 24 h.
For assay [4], the system named is Trypanosoma brucei gambiense. Description: Trypanocidal activity against Trypanosoma brucei gambiense. It counts as functional, organism-based.
Assay [5] concerns Mycobacterium tuberculosis. The experiment in a line: Antitubercular activity against Mycobacterium tuberculosis HN878 in presence of non-ionic surfactant vesicles relative to compound alone. The assay is classed as functional.
The subject of assay [6] is Mycobacterium tuberculosis. Description: Antitubercular activity against Mycobacterium tuberculosis HN878. The assay is classed as functional.

SMILES strings stand for the structures. In brackets after ≈: the same amount, converted by molar mass.

By MIC50 is commonly meant the lowest concentration that inhibits either 50% of growth or 50% of the strains tested, depending on the study. Lower therefore signals greater potency. For the molecule `Cl.Cl.N=C(N)N/N=C/c1ccc(-c2ccc(/C=N/NC(=N)N)s2)cc1`, the MIC50 in assay [1], in assay [2] and in assay [3] was 2 to 15.6 µg/mL in each case.

By IC50 is commonly meant the concentration that gives 50% inhibition. High values mean weaker potency, low ones greater potency. On to `N=C(N)c1ccc(OCCCCCOc2ccc(C(=N)N)cc2)cc1` [PENTAMIDINE], for which the IC50 in assay [4] is 1 to 10 nM.

On to `Cl.Cl.N=C(N)N/N=C/c1ccc(-c2cnc(-c3ccc(/C=N/NC(=N)N)cc3)s2)cc1`, for which the MIC50 in assay [1], in assay [2] and in assay [3] was 2 to 15.6 µg/mL in each case.

On to `Cl.Cl.N=C(N)N/N=C/c1ccc(-c2ccc(/C=N/NC(=N)N)o2)cc1`, for which the MIC50 in assay [1], in assay [2] and in assay [3] was 2 to 15.6 µg/mL throughout.

`Cn1cc(NC(=O)c2cc(NC(=O)c3ccc(/C=C/c4ccc(C(F)(F)F)cc4)cc3)cn2C)cc1C(=O)NCCC(=N)N`: the “fold change (FC)” value in assay [5] is reported as 2.1. For the same molecule, the MIC50 in assay [6] was 4.19 µM (≈ 2.54 µg/mL).

For `Cn1cc(NC(=O)c2cc(NC(=O)c3ccc(/C=C/c4nc5ccccc5s4)cc3)cn2C)cc1C(=O)NCCC(=N)N`, the “fold change (FC)” value in assay [5] was found to be 1.6. Moreover, the MIC50 in assay [6] was 4.09 µM (≈ 2.43 µg/mL).

Take `C/C(=N\NC(=N)N)c1ccc(-c2ccc(/C(C)=N/NC(=N)N)s2)cc1.Cl.Cl`: the MIC50 in assay [1], in assay [2] and in assay [3] was 2 to 15.6 µg/mL throughout.
